Experimental data published in US20140073637A1, “AMINO-SUBSTITUTED-ALKYLOXY-BENZO[E]PYRIDO[4,3-B]INDOLE DERIVATIVES AS NEW POTENT KINASE INHIBITORS” (INSTITUT CURIE, priority 2011, published 2014).

Assays:
Aurora B [1] = molecular target: T1, Aurora B (Homo sapiens, UniProt Q96GD4); assay: Kinase profiling in vitro at 1 μM; assay type: biochemical; conditions: compound at 1 μM, read-out: percentage of remaining activity of recombinant kinase
Description: (§1) The specificity of C14 was tested, in vitro, against 121 kinases representative of the kinome. Assays run in duplicate, at the concentration of 1 μM, were performed by MRC (Dundee, UK). Results are represented in FIG. 1. The main targets are highlighted in FIG. 1B.
(§2) In addition, the percentage of remaining activity of recombinant kinases Aurora kinases A and B and Checkpoint kinases 1 and 2 at the concentration of 1 μM of C1, C2 and C14 have been determined.
(§3) The profiling was performed at the MRC (Dundee University), in duplicate, on a set of 121 kinases. The panel is representative of the major different classes of kinases. Compounds were used at the concentration of 1 μM. In vitro, IC50 were determined on recombinant kinases by Reaction biology Corp (USA).

CHK1 = molecular target: T2, CHK1 (Homo sapiens, UniProt O14757); assay: Kinase profiling in vitro at 1 μM; assay type: biochemical; conditions: Chk1; compound at 1 μM; read-out: percentage of remaining activity of recombinant kinase
T2 sequence (O14757 1-476): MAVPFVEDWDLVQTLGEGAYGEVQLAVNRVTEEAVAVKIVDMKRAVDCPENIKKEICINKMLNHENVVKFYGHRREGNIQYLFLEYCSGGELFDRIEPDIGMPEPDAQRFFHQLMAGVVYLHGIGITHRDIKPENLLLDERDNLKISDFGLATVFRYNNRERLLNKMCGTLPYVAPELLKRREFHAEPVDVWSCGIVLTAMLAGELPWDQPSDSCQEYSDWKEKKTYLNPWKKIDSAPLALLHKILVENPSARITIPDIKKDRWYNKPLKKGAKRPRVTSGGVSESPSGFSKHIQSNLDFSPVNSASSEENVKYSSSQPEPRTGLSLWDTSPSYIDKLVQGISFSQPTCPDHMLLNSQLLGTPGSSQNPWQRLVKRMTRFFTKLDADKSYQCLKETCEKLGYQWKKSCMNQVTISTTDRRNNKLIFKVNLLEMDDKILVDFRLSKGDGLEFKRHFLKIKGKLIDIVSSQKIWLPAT
Description: as §1, §2, §3

Chk2 = Chk2 (Homo sapiens, UniProt O96017); assay: Kinase profiling in vitro at 1 μM; assay type: biochemical; conditions: compound at 1 μM, read-out: percentage of remaining activity of recombinant kinase
Chain of Chk2 (O96017 whole entry, species assumed): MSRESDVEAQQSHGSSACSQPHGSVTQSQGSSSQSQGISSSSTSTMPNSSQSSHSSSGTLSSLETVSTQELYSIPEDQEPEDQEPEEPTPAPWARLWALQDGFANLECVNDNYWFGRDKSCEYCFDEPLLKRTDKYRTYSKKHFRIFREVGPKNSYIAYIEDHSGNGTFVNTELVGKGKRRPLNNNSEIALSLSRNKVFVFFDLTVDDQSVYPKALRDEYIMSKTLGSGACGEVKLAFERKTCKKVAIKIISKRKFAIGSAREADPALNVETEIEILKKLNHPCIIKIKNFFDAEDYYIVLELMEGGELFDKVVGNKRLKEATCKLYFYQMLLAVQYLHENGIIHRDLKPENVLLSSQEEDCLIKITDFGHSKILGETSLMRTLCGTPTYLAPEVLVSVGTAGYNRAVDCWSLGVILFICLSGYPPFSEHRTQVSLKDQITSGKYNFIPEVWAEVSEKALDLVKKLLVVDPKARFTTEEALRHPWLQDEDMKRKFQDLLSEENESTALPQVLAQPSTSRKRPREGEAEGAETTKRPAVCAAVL
Description: as §1, §2, §3

Aurora A = molecular target: T3, Aurora A (Homo sapiens, UniProt O14965); assay: Kinase profiling in vitro at 1 μM; assay type: biochemical; conditions: Aurora A; compound at 1 μM; read-out: percentage of remaining activity of recombinant kinase
T3 sequence (O14965 1-403): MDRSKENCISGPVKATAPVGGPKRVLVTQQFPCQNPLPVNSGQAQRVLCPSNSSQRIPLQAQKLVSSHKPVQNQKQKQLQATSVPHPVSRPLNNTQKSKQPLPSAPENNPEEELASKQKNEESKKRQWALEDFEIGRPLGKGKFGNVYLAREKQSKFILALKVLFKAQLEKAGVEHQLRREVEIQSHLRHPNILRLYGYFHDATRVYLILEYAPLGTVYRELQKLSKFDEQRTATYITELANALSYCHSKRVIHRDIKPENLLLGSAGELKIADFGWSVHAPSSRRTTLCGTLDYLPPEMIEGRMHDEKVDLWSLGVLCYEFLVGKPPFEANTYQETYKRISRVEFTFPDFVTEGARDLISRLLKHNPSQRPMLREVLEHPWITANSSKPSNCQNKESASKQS
Description: Assays were run in vitro against recombinant kinases. The activity is reported for each kinase, grey histograms for CH21, white for C14 and gradation grey for C1. […] Therefore, C1 and C14 affect differently the Aurora kinase family.
as §1, §2, §3

121 kinases = assay: Kinase profiling on a set of 121 kinases; assay type: biochemical; conditions: kinases presenting the highest inhibitions; lists not exhaustive
Description: FIG. 1A: The potential inhibition of C14 was tested against 121 kinases, in vitro, at the concentration of 1 μM. The kinase activities, in the presence of C14, are represented, each kinase being represented by a vertical bar. Only 18 kinases have less than 30% activity in the presence of C14.
as §1, §3

HeLa cells = conditions: previously reported in Hoang et al, 2009, indicated for comparison, read-out: IC50 (in nM), antiproliferative assay; cited from earlier work
Aurora B [2] = molecular target: T1, Aurora B; assay: Aurora B inhibition in cells: Histone H3 Ser10 phosphorylation by western blotting and immunofluorescence; assay type: cell-based; set-up: endogenous in cells; host or cells: U2OS (human osteosarcoma); HeLa also used for the maleate salts; conditions: U2OS mitotic extracts; 1 μM overnight; western blotting (FIG. 3)
Description: Actin is used as control of quantity. Cells were incubated overnight in the presence of either C1, or C2 or CH21 or C14 or DMSO(C: control). All compounds were tested at 1 μM. Proteins were detected by western blotting.
Cells were incubated with the different molecules and Aurora B inhibition is estimated by western blotting (WB) and immuno fluorescent experiments. Histone H3 phosphorylated on Ser10 is used as a marker of Aurora B kinase activity and actin as an internal control. Each WB signal is compared to the control in the absence of compound. The efficiency estimated by WB is indicated by +++: very efficient inhibition to −: no inhibition. Immunofluorescent labelling of a mitotic cell by Histone H3 illustrates Aurora B kinase activity. However immunofluorescence is less sensitive than WB. Active molecules are underlined by a square and the intensity of the line indicates the efficiency of inhibition.
FIG. 10A: Immunofluorescence with phospho-Ser10-Histone H3 antibodies. Either the percentage of positive phospho-Ser10-Histone H3 is indicated or a representative mitosis shown. […] Immunofluorescent assays were realized with a specific phospho-antibody and mitotic U2OS cells are recognized by their DNA content stained with Hoechst. On the right, a representative cell or the percentage of H3-S10-P labelled mitosis.
(§4) FIG. 10B: Immunoblotting analysis of histone H3 phosphorylation. U2OS cells were incubated overnight with Nocodazole (50 nM) in the presence of either DMSO (Co) or Compounds (1 μM). Cells were then collected and lyzed. Identical amounts of the lyzed cell samples were run on 18% acrylamide gel containing SDS.
as §4, with “FIGS. 11B and 11C:” for “FIG. 10B:”, “U2OS and HeLa” for “U2OS”
Cells were incubated with the different molecules and Aurora B inhibition is estimated by western blotting and immunofluorescent experiments. Histone H3 phosphorylated on Ser10 is used as a marker of Aurora B kinase activity and actin as an internal control. Results are represented in FIGS. 4 and 10 and Table 3.
Cells were treated by compounds, harvested and lyzed in 9M urea then supplemented with Laemmli sample buffer. Cell extracts were subjected to SDS-PAGE and transferred to nitrocellulose filter (GE Healthcare). After blocking with 5% non-fat milk in PBS for at least 1 hour, the membranes were incubated with the primary antibodies. The following antibodies were used: phospho-Histone H3 Ser10 (1:2000, Upstate Biotechnology), anti LAST1 (Cell signalling), anti Aurora B (epitomics) and anti alpha-tubulin (Sigma) Anti-rabbit horseradish peroxidase (1:5000, GE Healthcare) was used as secondary antibodies. Bands were visualized by ECL technique (Amersham Bioscience).
Cells were seeded on glass coverslips and treated by compounds (1 μM) overnight. After treatment, cells were fixed in 4% formaldhehyde at 37° C. for 15 minutes, then permeabilized for 5 minutes with Triton X-100 in PBS.

T1 sequence (Q96GD4 whole entry): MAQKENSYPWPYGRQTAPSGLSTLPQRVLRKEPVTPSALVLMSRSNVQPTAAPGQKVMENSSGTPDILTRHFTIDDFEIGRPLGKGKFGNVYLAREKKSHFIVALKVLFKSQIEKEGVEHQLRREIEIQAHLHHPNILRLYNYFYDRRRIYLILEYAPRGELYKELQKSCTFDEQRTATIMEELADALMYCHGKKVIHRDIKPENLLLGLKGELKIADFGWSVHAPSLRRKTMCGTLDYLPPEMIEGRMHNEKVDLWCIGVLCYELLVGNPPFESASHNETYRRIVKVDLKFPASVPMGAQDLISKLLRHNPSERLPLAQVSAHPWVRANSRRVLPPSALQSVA

## COc1ccc2c(ccc3[nH]c4c(C)c[nH]c(=O)c4c32)c1 [Compound C2, reference compound]
Aurora B [1]
  remaining activity at 1 µM: 24%
CHK1
  remaining activity at 1 µM: 12%
Chk2
  remaining activity at 1 µM: 3%
Aurora A
  remaining activity at 1 µM: 11%
121 kinases
  Known Targets (%): Aurora A Aurora B Chk1 Chk2 Flt3
HeLa cells
  IC50: 1160 ± 150 nM
Aurora B [2]
  Aurora B inhibition in cellulo (Histone H3 phosphorylation, in words): mild inhibitory activity
